The record followed here is ChEMBL document CHEMBL1121966, “(2R*,3S*)-1-[125I]Iodo-2,3-bis(4-hydroxyphenyl)pentane ([125I]iodonorhexestrol) and (2R*,3S*)-1-[77Br]Bromo-2,3-bis(4-hydroxyphenyl)pentane ([77Br]bromonorhexestrol), two gamma-emitting estrogens that show receptor-mediated uptake by target tissues in vivo” (1982).

SMILES strings stand for the structures.

This experiment can be described thus: Solvolytic stability of compound was measured relative to p-hydroxyphenethyl bromide. Format: functional, Rattus norvegicus.

On to `C[C@]12CC[C@@H]3c4ccc(O)cc4CC[C@H]3[C@@H]1C[C@@H](Br)[C@@H]2O`, for which the 1/krel is 1276.

As for `C[C@]12CC[C@@H]3c4ccc(O)cc4CC[C@H]3[C@@H]1C[C@@H](CBr)C2O` (some centres not stated), the 1/krel is 451.
